From ChEMBL document CHEMBL1201862, “PubChem BioAssay data set” (2004)
Where a name gives a salt, the structure may show the parent alone.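 Following 48 hours of exposure in 96-well plates, responses at five concentrations were used to interpolate endpoints linearly. GI50 = concentration required for 50% inhibition of growth.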 Calls of active or inactive are those of the source. No stated cut-off is given here; in the data, active = GI50 up to about 1.1 µM and inactive = higher.

What was measured:
Experiment in all cases: inhibition of tumour cell growth, NCI panel, 48 h
UACC-62 = test system: UACC-62
KM12 = test system: KM12
SF-295 = test system: SF-295
SNB-19 = test system: SNB-19
UACC-257 = test system: UACC-257
K562 = test system: K562
SW-620 = test system: SW-620
SK-MEL-5 = test system: SK-MEL-5
HOP-92 = test system: HOP-92
HCT-15 = test system: HCT-15
COLO 205 = test system: COLO 205
TK-10 = test system: TK-10
EKVX = test system: EKVX
OVCAR-4 = test system: OVCAR-4
SN12C = test system: SN12C
MDA-N = test system: MDA-N
RPMI-8226 = test system: RPMI-8226
HCC 2998 = test system: HCC 2998
ACHN = test system: ACHN
SF-268 = test system: SF-268
MCF7 = test system: MCF7
MDA-MB-231 = test system: MDA-MB-231
SR = test system: SR
PC-3 = test system: PC-3
CCRF-CEM = test system: CCRF-CEM
IGROV-1 = test system: IGROV-1
SK-MEL-2 = test system: SK-MEL-2
Hs-578T = test system: Hs-578T
DU-145 = test system: DU-145
LOX IMVI = test system: LOX IMVI
HCT-116 = test system: HCT-116
T47D = test system: T47D
NCI-H226 = test system: NCI-H226
NCI-H522 = test system: NCI-H522
OVCAR-3 = test system: OVCAR-3
NCI/ADR-RES = test system: NCI/ADR-RES
U-251 = test system: U-251
M14 = test system: M14
HOP-62 = test system: HOP-62
BT-549 = test system: BT-549
HL-60 = test system: HL-60
786-0 = test system: 786-0
NCI-H23 = test system: NCI-H23
SK-OV-3 = test system: SK-OV-3
SNB-75 = test system: SNB-75
OVCAR-5 = test system: OVCAR-5
CAKI-1 = test system: CAKI-1
SF-539 = test system: SF-539
UO-31 = test system: UO-31
MDA-MB-435 = test system: MDA-MB-435
SK-MEL-28 = test system: SK-MEL-28
HT-29 = test system: HT-29
NCI-H460 = test system: NCI-H460
OVCAR-8 = test system: OVCAR-8
A549 = test system: A549
A498 = test system: A498
MOLT-4 = test system: MOLT-4
Malme-3M = test system: Malme-3M
RXF 393 = test system: RXF 393

`COc1ccc(Cc2nccc3cc(OC)c(OC)cc23)cc1OC` [PAPAVERINE HYDROCHLORIDE] was tested, and the GI50 (UACC-62) was > 100 µM (inactive), the GI50 (KM12) was > 100 µM (inactive) and the GI50 (SF-295) was 84.9 µM (inactive). The GI50 (SNB-19) was 70.1 µM (inactive), the GI50 (UACC-257) was > 100 µM (inactive) and the GI50 (K562) was 37.3 µM (inactive). The GI50 (SW-620) was > 100 µM (inactive), the GI50 (SK-MEL-5) was 16.6 µM (inactive) and the GI50 (HOP-92) was 36.5 µM (inactive). The GI50 (HCT-15) was 87.3 µM, the GI50 (COLO 205) was > 100 µM (inactive) and the GI50 (TK-10) was > 100 µM (inactive). The GI50 (EKVX) was 45.5 µM (inactive), the GI50 (OVCAR-4) was > 100 µM (inactive) and the GI50 (SN12C) was > 100 µM (inactive). For the same molecule, the GI50 (MDA-N) was 94 µM (inactive), the GI50 (RPMI-8226) was 36.7 µM (inactive) and the GI50 (HCC 2998) was 92.9 µM (inactive). For the same molecule, the GI50 (ACHN) was 63 µM (inactive), the GI50 (SF-268) was > 100 µM (inactive) and the GI50 (MCF7) was > 100 µM (inactive). The GI50 (MDA-MB-231) was 47.2 µM (inactive), the GI50 (SR) was 19.2 µM (inactive) and the GI50 (PC-3) was 74.3 µM (inactive). The GI50 (CCRF-CEM) was > 100 µM (inactive), the GI50 (IGROV-1) was > 100 µM (inactive) and the GI50 (SK-MEL-2) was > 100 µM (inactive). The GI50 (Hs-578T) was > 100 µM (inactive), the GI50 (DU-145) was > 100 µM (inactive) and the GI50 (LOX IMVI) was 60.8 µM (inactive). For the same molecule, the GI50 (HCT-116) was 39.3 µM (inactive), the GI50 (T47D) was 19.5 µM (inactive) and the GI50 (NCI-H226) was 43.5 µM (inactive). For the same molecule, the GI50 (NCI-H522) was > 100 µM (inactive), the GI50 (OVCAR-3) was > 100 µM (inactive) and the GI50 (NCI/ADR-RES) was 26.7 µM (inactive). For the same molecule, the GI50 (U-251) was > 100 µM (inactive), the GI50 (M14) was > 100 µM (inactive) and the GI50 (HOP-62) was 43.8 µM (inactive). For the same molecule, the GI50 (BT-549) was 53.8 µM (inactive), the GI50 (HL-60) was 45 µM (inactive) and the GI50 (786-0) was > 100 µM (inactive). For the same molecule, the GI50 (NCI-H23) was 19.8 µM (inactive), the GI50 (SK-OV-3) was > 100 µM (inactive) and the GI50 (SNB-75) was > 100 µM (inactive). For the same molecule, the GI50 (OVCAR-5) was > 100 µM (inactive), the GI50 (CAKI-1) was 47.3 µM (inactive) and the GI50 (SF-539) was 76 µM (inactive). The GI50 (UO-31) was 78.7 µM (inactive), the GI50 (MDA-MB-435) was > 100 µM (inactive) and the GI50 (SK-MEL-28) was > 100 µM (inactive). For the same molecule, the GI50 (HT-29) was 41.3 µM (inactive), the GI50 (NCI-H460) was 19 µM (inactive) and the GI50 (OVCAR-8) was 64.9 µM (inactive). For the same molecule, the GI50 (A549) was > 100 µM (inactive), the GI50 (A498) was 77.3 µM (inactive) and the GI50 (MOLT-4) was 47.8 µM (inactive).

With `CCOC(=O)NC(C(F)(F)F)(C(F)(F)F)P(=O)(OCC(C)C)OCC(C)C` the GI50 (UACC-62) was 11.7 µM (inactive), the GI50 (KM12) was 14 µM (inactive) and the GI50 (SF-295) was 24.8 µM (inactive). The GI50 (SNB-19) was 28.8 µM (inactive), the GI50 (K562) was 7.28 µM (inactive) and the GI50 (SW-620) was 3.82 µM (inactive). For the same molecule, the GI50 (SK-MEL-5) was 12.1 µM (inactive), the GI50 (HOP-92) was 9.38 µM (inactive) and the GI50 (Malme-3M) was 16.2 µM (inactive). The GI50 (HCT-15) was 4.18 µM, the GI50 (COLO 205) was 10.2 µM (inactive) and the GI50 (TK-10) was 11.9 µM (inactive). The GI50 (EKVX) was 21.6 µM (inactive), the GI50 (SN12C) was 16.2 µM (inactive) and the GI50 (MDA-N) was 6.04 µM (inactive). The GI50 (RPMI-8226) was 14.4 µM (inactive), the GI50 (HCC 2998) was 34.6 µM (inactive) and the GI50 (ACHN) was 8.34 µM (inactive). The GI50 (RXF 393) was 11.3 µM (inactive), the GI50 (SF-268) was 11.1 µM (inactive) and the GI50 (MCF7) was 4.7 µM (inactive). The GI50 (MDA-MB-231) was 15.1 µM (inactive), the GI50 (SR) was 9.77 µM (inactive) and the GI50 (PC-3) was 6.37 µM (inactive). For the same molecule, the GI50 (CCRF-CEM) was 2.67 µM (inactive), the GI50 (IGROV-1) was 10.2 µM (inactive) and the GI50 (SK-MEL-2) was 14.9 µM (inactive). The GI50 (Hs-578T) was 14.9 µM (inactive), the GI50 (DU-145) was 35 µM (inactive) and the GI50 (LOX IMVI) was 4.49 µM (inactive). For the same molecule, the GI50 (HCT-116) was 2.55 µM (inactive), the GI50 (T47D) was 23.8 µM (inactive) and the GI50 (NCI-H226) was 13.9 µM (inactive). For the same molecule, the GI50 (NCI-H522) was 2.49 µM (inactive), the GI50 (OVCAR-3) was 19.1 µM (inactive) and the GI50 (NCI/ADR-RES) was 5.05 µM (inactive). The GI50 (U-251) was 5.98 µM (inactive), the GI50 (M14) was 11.6 µM (inactive) and the GI50 (HOP-62) was 30 µM (inactive). The GI50 (BT-549) was 13.2 µM (inactive), the GI50 (HL-60) was 2.97 µM (inactive) and the GI50 (SK-OV-3) was 13.7 µM (inactive). The GI50 (SNB-75) was 23.6 µM (inactive), the GI50 (OVCAR-5) was 18.6 µM (inactive) and the GI50 (CAKI-1) was 27.9 µM (inactive). For the same molecule, the GI50 (SF-539) was 15.7 µM (inactive), the GI50 (UO-31) was 7.35 µM (inactive) and the GI50 (MDA-MB-435) was 15.5 µM (inactive). The GI50 (SK-MEL-28) was 18 µM (inactive), the GI50 (HT-29) was 11.5 µM (inactive) and the GI50 (NCI-H460) was 19.2 µM (inactive). For the same molecule, the GI50 (OVCAR-8) was 5.41 µM (inactive), the GI50 (A549) was 22.3 µM (inactive) and the GI50 (A498) was 41.9 µM (inactive).

`O=C(C[C@H](NC(=O)OCc1ccccc1)C(=O)NC1Cc2ccccc2OC1=O)OCc1ccccc1` (some centres not stated) was tested, and the GI50 (UACC-62) was > 10 µM (inactive), the GI50 (KM12) was > 100 µM (inactive) and the GI50 (SNB-19) was > 100 µM (inactive). For the same molecule, the GI50 (K562) was 15.7 µM (inactive), the GI50 (SK-MEL-5) was > 100 µM (inactive) and the GI50 (HOP-92) was > 100 µM (inactive). The GI50 (Malme-3M) was > 100 µM (inactive), the GI50 (HCT-15) was 46 µM and the GI50 (COLO 205) was > 100 µM (inactive). For the same molecule, the GI50 (SN12C) was 36.4 µM (inactive), the GI50 (MDA-N) was > 100 µM (inactive) and the GI50 (RPMI-8226) was > 100 µM (inactive). For the same molecule, the GI50 (HCC 2998) was 15.9 µM (inactive), the GI50 (RXF 393) was > 100 µM (inactive) and the GI50 (MCF7) was 19.4 µM (inactive). For the same molecule, the GI50 (MDA-MB-231) was 26.7 µM (inactive), the GI50 (SR) was > 100 µM (inactive) and the GI50 (PC-3) was 21.8 µM (inactive). For the same molecule, the GI50 (CCRF-CEM) was 17.4 µM (inactive), the GI50 (IGROV-1) was > 100 µM (inactive) and the GI50 (SK-MEL-2) was > 100 µM (inactive). For the same molecule, the GI50 (Hs-578T) was > 100 µM (inactive), the GI50 (DU-145) was 59.6 µM (inactive) and the GI50 (HCT-116) was 29.2 µM (inactive). The GI50 (T47D) was 94.8 µM (inactive), the GI50 (NCI-H226) was > 100 µM (inactive) and the GI50 (NCI-H522) was > 100 µM (inactive). For the same molecule, the GI50 (OVCAR-3) was > 100 µM (inactive), the GI50 (NCI/ADR-RES) was > 100 µM (inactive) and the GI50 (U-251) was > 100 µM (inactive). The GI50 (M14) was > 100 µM (inactive), the GI50 (HOP-62) was > 100 µM (inactive) and the GI50 (BT-549) was > 100 µM (inactive). The GI50 (HL-60) was > 10 µM (inactive), the GI50 (NCI-H23) was > 100 µM (inactive) and the GI50 (SK-OV-3) was > 100 µM (inactive). For the same molecule, the GI50 (SNB-75) was > 100 µM (inactive), the GI50 (OVCAR-5) was > 100 µM (inactive) and the GI50 (CAKI-1) was 70 µM (inactive). For the same molecule, the GI50 (UO-31) was > 100 µM (inactive), the GI50 (MDA-MB-435) was > 100 µM (inactive) and the GI50 (SK-MEL-28) was > 100 µM (inactive). For the same molecule, the GI50 (NCI-H460) was 41.6 µM (inactive), the GI50 (OVCAR-8) was > 100 µM (inactive) and the GI50 (A498) was > 100 µM (inactive). The GI50 (MOLT-4) was > 100 µM (inactive).
